{
  "source": "patent US20120171123A1",
  "about": "“USES AND COMPOSITIONS FOR TREATMENT OF RHEUMATOID ARTHRITIS” (priority 2006, published 2012)",
  "assay_type_in_all_cases": "in vivo, human",
  "key": {"[1]": {"tested_on": "patients with moderate to severe rheumatoid arthritis", "experiment": "Study C: HAQ", "procedure": "The Canadian Adalimumab Clinical Trial (Study C) was an open-label, multi-center, Phase IIIb study conducted in Canada. […] Efficacy and safety were assessed at baseline, 4, 8, and 12 weeks. Efficacy assessments included tender joint count (TJC 0-28), swollen joint count (SJC 0-28), Disease Activity Score 28 (DAS28), Health Assessment Questionnaire (HAQ), and EULAR response. This was a preliminary analysis of 236 patients. The sample size for each outcome variable is based on the data available at the time of the analysis. The data from this preliminary analysis were compared with the Week 12 data from Study A (N=2008)."}, "[2]": {"tested_on": "patients with active rheumatoid arthritis", "experiment": "Study A: HAQ physical function", "description": "Efficacy of a treatment for rheumatoid arthritis can be determined by using the health assessment questionnaire (HAQ). Health Assessment Questionaire (HAQ) is a standardized disability questionnaire that was initially developed for use in rheumatoid arthritis (RA). […] The HAQ is a validated questionnaire designed to assess patients' ability to perform activities of daily living, particularly in adult arthritics. The instrument consists of the HAQ Disability Index (20 items), Pain Scale (1 item), and Global Health Status (1 item) that measure disability/physical functioning and quality of life (see Fries (1982) et al. J Rheumatol 9:789).\nImprovements in physical function were determined using the HAQ score.\nTo evaluate the impact of prior biological therapies, patients with moderate to severe RA enrolled at 450 sites in 11 European countries plus Australia (Study A). Patients with moderate to severe RA and an inadequate response to prior DMARD therapies were enrolled in a 12-week open-label study with an optional extension phase. […] Efficacy parameters included ACR20, ACR50, ACR70, EULAR Response, HAQ, tender and swollen joint count (TJC28/SJC28), and DAS28.\nPatients with long-standing, moderate to severe RA were enrolled in Study A at 450 sites in 12 different countries. The study design for Study A is outlined in FIG. 21. […] Previous treatment with other biologics was allowed up to 8 weeks before enrollment. Patients met the following inclusion criteria: Age ≧18 years; RA (defined by American College of Rheumatology criteria) for ≧3 months; active, moderate to severe RA (Disease Activity Score (DAS28)≧3.2); unsatisfactory response or intolerance to at least one prior DMARD, including biologics. Efficacy assessments were performed at weeks 0 (baseline), 2, 6, and 12. The key outcomes measured were: change in DAS28; EULAR responses; ACR20, ACR50, ACR70 responses; changes in Tender Joint Count (TJC) and Swollen Joint Count (SJC); and change in Health Assessment Questionnaire (HAQ).\nModerately to severely active RA was defined by Disease Activity Score 28 (DAS28)≧3.2 at baseline. Unsatisfactory response or intolerance to at least one prior DMARD was required for enrollment in Study A. A 12-week study period was followed by an optional extension phase with efficacy and routine safety evaluations performed at Weeks 2, 6, 12, 20, and every 8 weeks thereafter. […] Key efficacy parameters include ACR20, 50, and 70 responses; EULAR responses; and changes in DAS28, Tender Joint Count (TJC), Swollen Joint Count (SJC), C-Reactive Protein (CRP), and Health Assessment Questionnaire Disability Index (HAQ). […] Adverse events (AE) were collected throughout the entire treatment period, also beyond Week 52."}, "[3]": {"tested_on": "patients with long-standing RA who had inadequate responses to MTX", "experiment": "Study 1: tender and swollen joint counts", "procedure": "Two readers assessed X-rays performed at baseline (start of RCT), 1 year (end of RCT), and 3 years (post 2 years OLE). Changes from baseline in Total Sharp Score (TSS), Joint Erosions (JE), and Joint Space Narrowing (JSN) were calculated. ACR 20, 50, and 70 response rates, as well as TJC and SJC, were also measured."}, "[4]": {"tested_on": "patients with long-standing RA", "experiment": "Study 4: HAQ disability index", "procedure": "Efficacy outcomes were evaluated as observed data: DAS28; ACR 20/50/70; Tender Joint Count (TJC); Swollen Joint Count (SJC); and HAQ Disability Index. Baseline demographics and disease characteristics were similar in both Study 4 and Study 5 consistent with moderate to severe RA, as shown below in Table 64: […]"}, "[5]": {"conditions": "12 weeks, all pts in Study A (n=4241)"}, "[6]": {"conditions": "12 weeks, prior biologic: Any (n=688)"}, "[7]": {"conditions": "12 weeks, prior biologic: ETA (n=114)"}, "[8]": {"conditions": "12 weeks, prior biologic: ETA + INF (n=78)"}, "[9]": {"conditions": "12 weeks, prior biologic: INF (n=358)"}, "[10]": {"conditions": "12 weeks, prior biologic: None (n=3553)"}},
  "data": [
    {"substance": "adalimumab: human anti-TNF mAb (HUMIRA, Abbott Laboratories), described in U.S. Pat. No. 6,090,382 as D2E7", "values": [
      {"measurement": "improvement in HAQ score", "setting": "[1]; 12 weeks", "value": "−0.55"},
      {"measurement": "patients achieving HAQ<0.5", "setting": "[1]; 12 weeks", "value": 28, "unit": "%"},
      {"measurement": "HAQ (mean), change from baseline", "setting": "[1]; Study C, 12 weeks, preliminary analysis", "value": "−0.55 (122)"},
      {"measurement": "mean HAQ", "setting": "[1]; week 12 (baseline 1.4)", "value": 0.86},
      {"measurement": "improvement in HAQ score", "setting": "[2]; 12 weeks, N=2008 analysis", "value": "−0.49"},
      {"measurement": "patients achieving HAQ<0.5", "setting": "[2]; 12 weeks, N=2008 analysis", "value": 25, "unit": "%"},
      {"measurement": "Change in HAQ, mean change from baseline", "setting": "[2]; [5]", "value": "−0.49"},
      {"measurement": "HAQ < 0.5", "setting": "[2]; [5]", "value": 24, "unit": "%"},
      {"measurement": "Change in HAQ, mean change from baseline", "setting": "[2]; [6]", "value": "−0.43"},
      {"measurement": "HAQ < 0.5", "setting": "[2]; [6]", "value": 13, "unit": "%"},
      {"measurement": "Change in HAQ, mean change from baseline", "setting": "[2]; [7]", "value": "−0.36"},
      {"measurement": "HAQ < 0.5", "setting": "[2]; [7]", "value": 9, "unit": "%"},
      {"measurement": "Change in HAQ, mean change from baseline", "setting": "[2]; [8]", "value": "−0.35"},
      {"measurement": "HAQ < 0.5", "setting": "[2]; [8]", "value": 13, "unit": "%"},
      {"measurement": "Change in HAQ, mean change from baseline", "setting": "[2]; [9]", "value": "−0.49"},
      {"measurement": "HAQ < 0.5", "setting": "[2]; [9]", "value": 14, "unit": "%"},
      {"measurement": "Change in HAQ, mean change from baseline", "setting": "[2]; [10]", "value": "−0.5"},
      {"measurement": "HAQ < 0.5", "setting": "[2]; [10]", "value": 26, "unit": "%"},
      {"measurement": "Change in HAQ, mean change from baseline", "setting": "[2]; Week 12, concomitant LEF only (n=557)", "value": "−0.47"},
      {"measurement": "Change in HAQ, mean change from baseline", "setting": "[2]; Week 12, concomitant MTX + LEF (n=123)", "value": "−0.53"},
      {"measurement": "Change in HAQ, mean change from baseline", "setting": "[2]; Week 12, concomitant MTX + SSZ", "value": "−0.53"},
      {"measurement": "Change in HAQ, mean change from baseline", "setting": "[2]; Week 12, concomitant MTX only (n=1561)", "value": "−0.52"},
      {"measurement": "Change in HAQ, mean change from baseline", "setting": "[2]; Week 12, concomitant QC/HQC (n=85)", "value": "−0.63"},
      {"measurement": "Change in HAQ, mean change from baseline", "setting": "[2]; Week 12, concomitant SSZ only (n=89)", "value": "−0.47"},
      {"measurement": "Change in HAQ, mean change from baseline", "setting": "[2]; Wk 12, concomitant MTX Im 15 mg (N=76), no other DMARD", "value": "−0.55"},
      {"measurement": "Change in HAQ, mean change from baseline", "setting": "[2]; Wk 12, concomitant MTX Iv 15 mg (N=23), no other DMARD", "value": "−0.54"},
      {"measurement": "Change in HAQ, mean change from baseline", "setting": "[2]; Wk 12, concomitant MTX Sc 15 mg (N=37), no other DMARD", "value": "−0.53"},
      {"measurement": "Change in HAQ, mean change from baseline", "setting": "[2]; Wk 12, concomitant MTX oral 15 mg (N=405), no other DMARD", "value": "−0.50"},
      {"measurement": "Change in HAQ, mean change from baseline", "setting": "[2]; Wk 12, concomitant MTX oral ≦7.5 (N=127), no other DMARD", "value": "−0.56"},
      {"measurement": "Change in HAQ, mean change from baseline", "setting": "[2]; Wk 12, concomitant MTX oral ≧20 mg (N=216), no other DMARD", "value": "−0.52"},
      {"measurement": "mean change in HAQ score from baseline", "setting": "[2]; week 2", "value": "−0.32"},
      {"measurement": "mean change in HAQ score from baseline", "setting": "[2]; week 6", "value": "−0.44"},
      {"measurement": "mean change in HAQ score from baseline", "setting": "[2]; week 12", "value": "−0.51"},
      {"measurement": "patients achieving HAQ<0.5", "setting": "[2]; week 12", "value": 5, "unit": "%"},
      {"measurement": "patients with a change in HAQ≧−0.22 (MCID)", "setting": "[2]; week 12", "value": 70, "unit": "%"},
      {"measurement": "change in HAQ", "setting": "[2]; week 12 (n=6235)", "value": "−0.52"},
      {"measurement": "patients achieving HAQ<0.5", "setting": "[2]; week 12, listed as Adalimumab", "value": 25, "unit": "%"},
      {"measurement": "change in HAQ", "setting": "[2]; week 28 (n=4119)", "value": "−0.56"},
      {"measurement": "change in HAQ", "setting": "[2]; week 52 (n=1251)", "value": "−0.57"},
      {"measurement": "TJC or SJC", "setting": "[3]; 36 months", "value": "5-7"},
      {"measurement": "patients with 0 swollen joints", "setting": "[3]; last visit", "value": 22, "unit": "%"},
      {"measurement": "patients with 0 tender joints", "setting": "[3]; last visit", "value": 21, "unit": "%"},
      {"measurement": "HAQ, % change of mean clinical improvement from baseline", "setting": "[4]; 6 months", "value": 45, "unit": "%"},
      {"measurement": "HAQ, % change of mean clinical improvement from baseline", "setting": "[4]; 12 months", "value": 43, "unit": "%"},
      {"measurement": "HAQ, % change of mean clinical improvement from baseline", "setting": "[4]; 24 months", "value": 47, "unit": "%"},
      {"measurement": "HAQ, % change of mean clinical improvement from baseline", "setting": "[4]; 36 months", "value": 47, "unit": "%"},
      {"measurement": "HAQ, % change of mean clinical improvement from baseline", "setting": "[4]; 48 months", "value": 50, "unit": "%"}
    ]}
  ]
}
